Source: patent US20240418723A1, “SEQUENTIAL TREATMENTS AND BIOMARKERS TO REVERSE RESISTANCE TO KINASE INHIBITORS” (Queen Mary University of London, priority 2021, published 2024)

What was measured:
Format in all cases: cell-based
[1] = system: P31/Fuj AML cells; assay: Sequential treatment of P31/Fuj cells (ATRA or LSD1 inhibitor 5 days, then MEKi 3 days; also co-treatment and reverse treatment): cell viability, cell number, apoptosis, CDI
Method: (§1) The Bliss independence model was used to derive coefficients of drug interaction (CDI) values, where CDI <1 indicates significant priming by the […] (synergistic effect).
(§2) For the proliferation/viability assays, cells were seeded in T75 flasks (0.5×10^6 cells/mL of RPMI/FBS medium) and exposed for 5 days to either vehicle or epigenetic modifier. Unless otherwise specified, the final concentration for GSK2879552 (LSD1i), […] (EZH2i), pinometostat (DOT1Li) and ATRA was 1 μM while for decitabine (DNMTAi) and vorinostat (HDACi) was 100 nM; all epigenetic inhibitors were diluted in DMSO, while ATRA was diluted in Et-OH. Vehicle concentration was kept at 0.1%. […] The final concentration of DMSO was kept at 0.1%. Finally, cells were transferred to 96-well plates (100 μL per well in 3 technical replicates per condition) and cell viability and proliferation were assessed using Guava and ApoTox-Glo Triplex analyses, as indicated below.
(§3) For Guava analysis, cells were stained with Guava ViaCount reagent (Luminex #4000-0040) in 96-well plates, by mixing 150 μL of cell suspension with 75 μL of reagent, and left to incubate for a minimum of 10 minutes in the dark, after which they were processed through a Guava easyCyte flow cytometer (Luminex #0500-5005). Flow cytometry data were analysed using CytoSoft (v2.5.7). Viability and cell number values were expressed relative to vehicle control.
For ApoTox-Glo analysis, cell suspensions were transferred to opaque 96-well plates (100 μL per well) and viability and apoptosis measured using ApoTox-Glo Triplex Assay (Promega #G6320). 20 μL of Viability/Cytotoxicity reagent (containing GF-AFC and bis-AAF-R110 substrates) were added to each well, then incubated at 37° C. for 1 hour. Live cell and cytotoxicity outputs were measured on FLUOstar Omega microplate reader (BMG Labtech). To obtain the live cell output, fluorescence was measured at 355EX/520EM (wavelengths in nm); for the cytotoxicity output, fluorescence was measured at 485EX/520EM. Following this, 100 μL of Caspase-Glo 3/7 reagent were added to each well and incubated at 25° C. for 1 hour. Luminescence was then measured on FLUOstar Omega microplate reader (BMG Labtech). The fluorescence and luminescence signals thus obtained were corrected to the respective background controls (culture medium with no cells). Relative cell number values were obtained by normalising live cell outputs to vehicle control. Apoptosis values were obtained by dividing luminescence outputs to the respective live cell outputs, then normalising to vehicle control.
The extent of drug interaction was calculated in Microsoft Excel 2016 using the CDI formula AB/(A*B), where AB is the normalized reduction in cell viability of the sequential treatment, and A and B are the effects of single treatments. Statistical significance of CDI values for each AML sample was determined using a one sample t-test (base R package) with the null hypothesis being that the mean Log2(CDI) equals 0.

[2] = system: AML cell lines; assay: Small-scale drug screens: epigenetic antagonist 5 days followed by kinase inhibitor 3 days, cell viability/proliferation, CDI
Method: as §1, §2
as §3, with “Viability and cell number values were expressed relative to vehicle control.” left out

[3] = system: P31/Fuj cells; assay: Subcellular (cytosolic and nuclear/organelle) proteomics of LSD1i-treated P31/Fuj cells
Method: Isolation of nuclear/organelle and cytosolic fractions for proteomic analysis was carried out as described below.
The isolation of cytosolic and nuclear/organelle proteins was performed as follows. Cells (10×10^6 cells per replicate) were resuspended in 1 mL hypotonic lysis buffer (containing 10 mM Tris-HCl pH 8.0, 1 mM KCl, 1.5 mM MgCl2, 1 mM DTT, 1 mM Na3VO4 and 1 mM NaF) and incubated at 4° C. for 30 minutes on a rotator. Nuclei/organelles were then pelleted (10,000×g, 10 min, 4° C.), after which the supernatant (cytosolic fraction) was transferred to fresh tubes. The nuclear/organelle fraction was further processed for proteomic analysis by adding 8M urea buffer as indicated above.
Proteins in the supernatant were isolated by methanol/chloroform precipitation as follows. Methanol was added to the protein solution (at 4×initial volume), followed by chloroform (1×initial volume) and ddH2O (3×initial volume), vortexing after each addition. Samples were centrifuged for 2 min, 12,000×g, 4° C., and the top aqueous layer was removed. Additional methanol was added (4×initial volume) and samples vortexed. Samples were centrifuged for 3 min, 12,000×g, 4° C., and the supernatant removed. Protein pellets were dried briefly at RT, then resuspended in 8M urea buffer. Homogenisation, cysteine alkylation and tryptic digestion of the nuclear and cytosolic fractions were carried out as described above. Desalting was performed through C18 spin columns (Glygen Corporation, Cat. TT2C18) following the manufacturer's indications. Briefly, columns were equilibrated twice with 200 μL 70% ACN, and washed twice with 200 μL 1% ACN. Peptide samples were loaded onto the columns, then washed twice with 200 μL 1% ACN, with spinning. […] Columns were spun for 2 min at 1,500×g, 4° C. each time they were loaded.

[4] = LSD1i and MEKi co-treatment 3 days, P31/Fuj (FIG. 10B)
[5] = 0.5 μM LSD1i 5 days versus control (FIG. 21A)
[6] = 0.5 μM LSD1i 5 days versus control (FIG. 21B)
[7] = LSD1i, pathway analysis of proteomics data (FIG. 21 C, D)

In the case of `O=C(O)c1ccc(CN2CCC(CN[C@@H]3C[C@H]3c3ccccc3)CC2)cc1` [GSK2879552], the “Log2 CDI, reverse treatment” value ([1]; 3-day pre-treatment with MEKi followed by 5-day LSD1i, additive to strongly antagonistic, P31/Fuj) is reported as over 0, the “Log2 CDI based on cell number and apoptosis, 5+3 days sequential treatment” value ([1]; LSD1i 5 days then MEKi 3 days, all concentrations above 10 nM, strongly synergistic, P31/Fuj (FIG. 10A)) is reported as “below 0” and the “sensitisation to the effects of MEKi (suppressing proliferation and inducing apoptosis)” value ([1]; LSD1i 5 days then MEKi 3 days, dose-dependent manner, P31/Fuj cells (FIG. 2E)) is reported as “sensitised P31/Fuj cells to the effects of MEKi”. The “CDI for apoptosis, 3-day co-treatment” value [1, 4] was “mildly synergistic”, the “CDI for proliferation, 3-day co-treatment” value [1, 4] was “near additive” and the “number of AML cell lines sensitised to midostaurin, pictilisib or trametinib” value ([2]; LSD1i pre-treatment, out of the 12 AML cell lines tested (FIG. 2D)) was 9. For the same molecule, the “-Log2 CDI (coefficient of drug interaction), sensitisation to kinase inhibitor treatment” value ([2]; epigenetic antagonist 5 days, then MEK, mTOR or PKC inhibitor 3 days, cell viability, Bliss independence, CDI <1 = synergistic (FIG. 2C)) was “one of the most potent sensitisers to kinase inhibitor treatment”, the “number of proteins decreasing in cytosolic fraction” value [3, 5] was 379 and the “number of proteins increased in cytosolic fraction” value [3, 5] was 101. For the same molecule, the “number of proteins decreasing in nuclear/organelle fraction” value [3, 6] was 334, the “number of proteins increased in nuclear/organelle fraction” value [3, 6] was 293 and the “expression of MAPK pathway enzymes including NRAS, KRAS, MEK1 and P90-S6K (RPS6KA1 isoform)” value ([3]; LSD1i 5 days (FIG. 7B, 22A)) was “increase”. For the same molecule, the “expression of PI3K p110δ catalytic isoform, AKT2, and RAC1” value ([3]; LSD1i 5 days (FIG. 7B, 22A)) was “decrease”, the “proteins involved in the PI3K, insulin and c-MYC signaling pathways” value [3, 7] was “decrease” and the “α and β-integrin signaling proteins” value [3, 7] was “increase”.
